Here are results for two compounds from patent US9771559B2, “Methods and compositions for stem cell self-renewal” (Stowers Institute for Medical Research, priority 2007, dated 2017).

Series [1] deals with lethally irradiated (10Gy) CD45.1^+ recipient mice. As to the kind of experiment: Transplantation of cultured LSK Flk2- cells into lethally irradiated recipients; donor repopulation in peripheral blood. The class given is in vivo. The conditions noted are these: 28-day cultures; 1000 re-sorted LSK Flk2- cells (CD45.2+) + 2×10^5 competitor cells per mouse; peripheral blood at 4 weeks post-transplant.
From the text: Cells were harvested from the wells prior to transplantation by pipetting up and down several times before transferring to a fresh tube. Residual was then collected by adding more media and repeating. Cells were washed in DMEM (Invitrogen, Cat. No. 31053) without phenol red and added to the appropriate number of whole bone marrow rescue cells from a congenic donor (for 200,000 rescue cells+1,000 re-sorted LSK Flk2^− cells (FIG. 3F-H) or the non-adherent product of 10 days culture of 100 LSK Flk2^− cultured cells (FIG. 3I-K) per mouse as indicated). Cells were injected into lethally irradiated (10 Grays, single dose) Ptprc (CD45.1^+) recipient mice through the tail vein using an insulin syringe.
Repopulation was measured at 4 weeks post-transplant by collection of peripheral blood, red blood cell lysis, and staining of CD45.1 (recipient) compared to CD45.2 (donor) engraftment using antibodies purchased from eBiosciences (FITC conjugated CD45.2 (Cat. No. 11-0454-85) and PE-Cy5 conjugated CD45.1 (Cat. No. 15-0453-82)). Mice transplanted with rescue/competitor cells only were used as a control to determine the limits of repopulation detection. Multi-lineage reconstitution was determined by CD3, B220 (for lymphoid) and Gr1, Mac-1 (for myeloid), as described above.
Cells cultured for 28 days in (1) media, (2) media+BpV(pic), (3) media+CHIR99021 and (4) media+CHIR99021 (1 μM)+BpV(pic) (200 nM) were re-sorted for LSK Flk2^− cells. One thousand LSK Flk2^− cells (CD45.2^+) from each media condition were transplanted into lethally irradiated (10Gy) CD45.1^+ recipient mice along with 2×10^5 congenic whole bone marrow competitor cells. At 4 weeks post-transplant, peripheral blood was analyzed for donor (FIG. 3G) and multi-lineage (FIG. 3H) engraftment. […] The horizontal-dashed line represents the average ‘engraftment’ of mice transplanted with competitor cells only and, thus, the limit of detectability for true engraftment.

For series [2], the system named is LSK Flk2^− cells. As to the kind of experiment: Ex vivo culture and expansion of sorted LSK Flk2- cells in media with PTEN and/or GSK-3β inhibitors. The conditions noted are these: 1 μM CHIR99021, 200 nM BpV(pic); for expansion of LSK cells compared to control: 100 LSK Flk2- cells seeded, 17 and 23 days culture; for Fold expansion of LSK Flk2- cells after 28 days culture: compared to media without inhibitor. The class given is cell-based, wild-type (C57Bl/6) mice. The procedure: LSK or LSK Flk2^− cells were sorted into 96-well U-bottom tissue culture plates at 100 cells/well with 200 μl media/well. Cells were incubated at 37° C., 5% O2, 5% CO2 (balance N2) for the indicated number of days. One-half total volume of media (see Table 1, below for the base media) was carefully pipetted from the top and replaced with fresh media every other day.
One hundred LSK Flk2^− cells were sorted from wild-type (C57Bl/6) mice and cultured in (1) media, (2) media+1 μM CHIR99021 (a GSK-3(3β inhibitor, a gift from Dr. Sheng Ding), (3) media+200 nM Dipotassium Bis-peroxo(picolinato)oxovanadate (BpV(pic), a PTEN inhibitor, available from Calbiochem, Cat. No. 203705), (4) media+1 μM CHIR99021+200 nM BpV(pic), (5) media+200 nM Shikonin (also a PTEN inhibitor, available from Calbiochem, Cat. No. 565850), and (6) media+200 nM Shikonin+1 μM CHIR99021. (FIGS. 3B-C). Cells were cultured as described above. Cells were examined at 17 days of culture (FIG. 3B, original magnification 100×) and 23 days (FIG. 3C, original magnification 40×).
LSK Flk2^− cells at 28 days culture in the indicated media conditions were examined (FIG. 3D, original magnification 200×).
Fold expansion of LSK Flk2^− cells after 28 days culture in (1) media, (2) media+BpV(pic), (3) media+CHIR99021, and (4) media+CHIR99021+BpV(pic) were analyzed.
One hundred LSK Flk2^− cells are sorted from wild-type (C57Bl/6) mice and are cultured in (1) media, (2) media+an GSK-3β antibody, (3) media+an anti-PTEN antibody, and (4) media+anti-GSK-3β and anti-PTEN antibodies. Cells are cultured as described above. Cells are examined at 9 days, 17 days and 23 days of culture.
One hundred LSK Flk2^− cells are sorted from wild-type (C57Bl/6) mice and are cultured in (1) media, (2) media+GSK-3β siRNA, (3) media+PTEN siRNA, and (4) media+GSK-3β siRNA and PTEN siRNA. Cells are cultured as described above. Cells are examined at 9 days, 17 days and 23 days of culture.

Series [3] concerns lethally irradiated (10Gy) CD45.1^+ recipient mice. The conditions noted are these: mouse, in vivo.
The test system is the same in series [4]. As to the kind of experiment: Observation of transplant recipients for leukogenesis and health. Conditions: recipients of LSK Flk2- cells cultured with inhibitor(s); up to 16 weeks post-transplantation.

Like-named read-outs stand apart in the source and are kept apart here.

Regarding “Dipotassium Bis-peroxo(picolinato)oxovanadate [BpV(pic)]”, the “mice showing >1% engraftment” value in series [1] is reported as 0/10. Besides, in series [2], the “expansion of LSK cells compared to control” value is “greater expansion” and the “Fold expansion of LSK Flk2- cells after 28 days culture” value is reported as “significant expansion”. Further, in series [3], the “mice showing any sign of leukogenesis” value is “no mice”.
For the compound `Cc1c[nH]c(-c2cnc(NCCNc3ccc(C#N)cn3)nc2-c2ccc(Cl)cc2Cl)n1` [CHIR99021], the “mice showing >1% engraftment” value in series [1] was 4/8. Besides, in series [2], the “expansion of LSK cells compared to control” value was “greater expansion” and the “Fold expansion of LSK Flk2- cells after 28 days culture” value is given as “significant expansion”. Also, in series [4], the “mice showing any sign of leukogenesis” value is recorded as “no mice”.
